Source: the NIST ThermoML archive (doi:10.1016/j.jct.2016.01.008)
± gives the expanded uncertainty stated by the source.

Conditions: Liquid; for mass density: 298.15 K, 101.33 kPa, Vibrating tube method; for Normal boiling temperature: Ebulliometric method (Recirculating still)

Row | mass density [kg/m3] | Normal boiling temperature [°C] | SMILES
1 | 785.27 ± 0.15 | 78.2 ± 0.4 | CCO [ethanol]
2 | 920.68 ± 0.12 | 176.1 ± 0.4 | CC12CCC(CC1)C(C)(C)O2 [1,3,3-trimethyl-2-oxabicyclo[2.2.2]octane]
